Values of other authors in US20170007591A1, “Composition to Mitigate Spikes in Blood Sugar” (Panacea Scientific, Inc., priority 2015, published 2017).

Legend:
[1] = target: CYP2C9 (Homo sapiens, UniProt P11712); settings: in humans
[2] = target: μ-opioid receptor (Homo sapiens, UniProt P35372); settings: acts as non-selective antagonist
[3] = target: δ-opioid receptor (Homo sapiens, UniProt P41143); settings: acts as non-selective antagonist
[4] = target: κ-opioid receptor (Homo sapiens, UniProt P41145); settings: acts as non-selective antagonist
Chain of κ-opioid receptor (P41145 whole entry): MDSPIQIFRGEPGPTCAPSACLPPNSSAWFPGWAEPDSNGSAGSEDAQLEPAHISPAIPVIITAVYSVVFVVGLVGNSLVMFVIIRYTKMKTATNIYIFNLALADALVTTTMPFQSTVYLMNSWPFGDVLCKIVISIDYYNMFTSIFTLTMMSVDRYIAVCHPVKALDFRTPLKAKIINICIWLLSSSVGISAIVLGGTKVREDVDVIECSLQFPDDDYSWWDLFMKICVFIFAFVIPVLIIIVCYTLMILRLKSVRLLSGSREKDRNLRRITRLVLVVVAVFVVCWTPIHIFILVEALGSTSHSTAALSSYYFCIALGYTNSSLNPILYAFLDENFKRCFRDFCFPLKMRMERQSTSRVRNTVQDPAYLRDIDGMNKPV

[5] = rats; 20 mg piperine dose with 2 g/kg dose of curcumin

Chain of μ-opioid receptor (P35372 whole entry): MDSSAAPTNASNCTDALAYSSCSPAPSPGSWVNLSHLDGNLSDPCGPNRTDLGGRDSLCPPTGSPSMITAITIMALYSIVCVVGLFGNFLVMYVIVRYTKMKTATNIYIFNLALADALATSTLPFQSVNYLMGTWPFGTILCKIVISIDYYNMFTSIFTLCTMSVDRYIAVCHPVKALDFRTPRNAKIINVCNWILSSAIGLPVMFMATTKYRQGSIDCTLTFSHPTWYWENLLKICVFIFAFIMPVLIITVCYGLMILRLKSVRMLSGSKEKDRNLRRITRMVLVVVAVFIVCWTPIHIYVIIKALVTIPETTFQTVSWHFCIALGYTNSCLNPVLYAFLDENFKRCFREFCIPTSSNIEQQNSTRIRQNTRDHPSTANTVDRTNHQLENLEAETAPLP
Chain of δ-opioid receptor (P41143 whole entry): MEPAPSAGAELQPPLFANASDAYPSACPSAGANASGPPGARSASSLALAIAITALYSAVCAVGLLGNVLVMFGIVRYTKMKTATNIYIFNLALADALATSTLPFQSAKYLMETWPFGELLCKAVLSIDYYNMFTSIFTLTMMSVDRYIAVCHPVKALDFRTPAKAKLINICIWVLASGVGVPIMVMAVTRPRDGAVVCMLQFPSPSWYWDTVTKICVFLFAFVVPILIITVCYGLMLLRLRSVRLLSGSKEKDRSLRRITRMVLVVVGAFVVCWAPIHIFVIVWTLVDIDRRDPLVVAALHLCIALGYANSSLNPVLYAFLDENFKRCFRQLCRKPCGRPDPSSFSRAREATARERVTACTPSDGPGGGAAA
Chain of CYP2C9 (P11712 whole entry): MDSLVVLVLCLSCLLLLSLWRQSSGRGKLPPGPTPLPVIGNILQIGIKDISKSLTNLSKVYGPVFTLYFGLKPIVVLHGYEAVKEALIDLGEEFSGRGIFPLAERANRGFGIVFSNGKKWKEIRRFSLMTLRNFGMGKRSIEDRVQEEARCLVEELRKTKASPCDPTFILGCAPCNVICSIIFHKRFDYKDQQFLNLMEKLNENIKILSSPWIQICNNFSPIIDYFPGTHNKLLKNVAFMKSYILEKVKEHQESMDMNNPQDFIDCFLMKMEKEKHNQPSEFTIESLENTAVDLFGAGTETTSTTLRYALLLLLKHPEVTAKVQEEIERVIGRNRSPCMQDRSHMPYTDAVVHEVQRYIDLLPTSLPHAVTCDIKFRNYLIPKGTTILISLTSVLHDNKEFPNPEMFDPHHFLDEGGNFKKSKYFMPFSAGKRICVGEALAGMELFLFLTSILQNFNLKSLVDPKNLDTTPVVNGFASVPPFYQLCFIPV

| increase of the bioavailability of curcumin [5] [%] | Structure (SMILES) | inhibition of CYP2C9 [1] | affinity for μ-opioid receptor [2] | affinity for δ-opioid receptor [3] | affinity for κ-opioid receptor [4] |
| --- | --- | --- | --- | --- | --- |
| – | O=c1cc(-c2ccc(O)cc2)oc2cc(O)cc(O)c12 [apigenin, 4′,5,7-trihydroxyflavone] | inhibits the enzyme CYP2C9 | nonomolar affinity | nonomolar affinity | nonomolar affinity |
| 154 | O=C(/C=C/C=C/c1ccc2c(c1)OCO2)N1CCCCC1 [piperine] | – | – | – | – |
